Laboratory results published in PubChem BioAssay (NCI).
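The compound was tested at five concentrations on cells cultured in 96-well plates, with a 48-hour exposure period. Definition used: TGI = concentration required for complete inhibition of growth.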

What was measured:
Assay in all cases: NCI tumour cell line growth inhibition, 48 h
SNB-19 CNS = test system: SNB-19 CNS
RXF 393 renal = test system: RXF 393 renal
ACHN renal = test system: ACHN renal
MCF7 breast = test system: MCF7 breast
DU-145 prostate = test system: DU-145 prostate
SK-MEL-28 melanoma = test system: SK-MEL-28 melanoma
IGROV1 ovarian = test system: IGROV1 ovarian
SF-539 CNS = test system: SF-539 CNS
NCI-H460 lung = test system: NCI-H460 lung
LOX IMVI melanoma = test system: LOX IMVI melanoma
HL-60(TB) leukemia = test system: HL-60(TB) leukemia
SF-295 CNS = test system: SF-295 CNS
HCT-116 colon = test system: HCT-116 colon
NCI-H23 lung = test system: NCI-H23 lung
TK-10 renal = test system: TK-10 renal
OVCAR-8 ovarian = test system: OVCAR-8 ovarian
OVCAR-5 ovarian = test system: OVCAR-5 ovarian
PC-3 prostate = test system: PC-3 prostate
KM12 colon = test system: KM12 colon
NCI-H226 lung = test system: NCI-H226 lung
OVCAR-4 ovarian = test system: OVCAR-4 ovarian
SK-MEL-2 melanoma = test system: SK-MEL-2 melanoma
K-562 leukemia = test system: K-562 leukemia
CAKI-1 renal = test system: CAKI-1 renal
MOLT-4 leukemia = test system: MOLT-4 leukemia
SK-MEL-5 melanoma = test system: SK-MEL-5 melanoma
RPMI-8226 leukemia = test system: RPMI-8226 leukemia
UACC-257 melanoma = test system: UACC-257 melanoma
MDA-MB-231 breast = test system: MDA-MB-231 breast
U251 CNS = test system: U251 CNS
SW-620 colon = test system: SW-620 colon
HOP-92 NSCLC = test system: HOP-92 NSCLC
HOP-62 NSCLC = test system: HOP-62 NSCLC
HT29 colon = test system: HT29 colon
T-47D breast = test system: T-47D breast
OVCAR-3 ovarian = test system: OVCAR-3 ovarian
UO-31 renal = test system: UO-31 renal
HS 578T breast = test system: HS 578T breast
HCT-15 colon = test system: HCT-15 colon
HCC-2998 colon = test system: HCC-2998 colon
UACC-62 melanoma = test system: UACC-62 melanoma
NCI-H522 lung = test system: NCI-H522 lung
SF-268 CNS = test system: SF-268 CNS
SK-OV-3 ovarian = test system: SK-OV-3 ovarian
786-0 renal = test system: 786-0 renal
SNB-75 CNS = test system: SNB-75 CNS
CCRF-CEM leukemia = test system: CCRF-CEM leukemia
BT-549 breast = test system: BT-549 breast
M14 melanoma = test system: M14 melanoma
EKVX NSCLC = test system: EKVX NSCLC
A498 renal = test system: A498 renal
A549 NSCLC = test system: A549 NSCLC
COLO 205 colon = test system: COLO 205 colon
SN12C renal = test system: SN12C renal
NCI/ADR-RES ovarian = test system: NCI/ADR-RES ovarian
SR leukemia = test system: SR leukemia
MDA-MB-435 = test system: MDA-MB-435
MALME-3M melanoma = test system: MALME-3M melanoma

## COc1cc(C2c3cc4c(cc3OC(NC3CCCCC3)C2C)OCO4)cc(OC)c1OC (centres undefined)
SNB-19 CNS
  TGI: > 100 µM
RXF 393 renal
  TGI: 0.82 µM
ACHN renal
  TGI: 40.2 µM
MCF7 breast
  TGI: > 100 µM
DU-145 prostate
  TGI: > 100 µM
SK-MEL-28 melanoma
  TGI: > 100 µM
IGROV1 ovarian
  TGI: > 54 µM
SF-539 CNS
  TGI: 1.4 µM
NCI-H460 lung
  TGI: > 100 µM
LOX IMVI melanoma
  TGI: 17.6 µM
HL-60(TB) leukemia
  TGI: 0.675 µM
SF-295 CNS
  TGI: 0.577 µM
HCT-116 colon
  TGI: 15.5 µM
NCI-H23 lung
  TGI: 11 µM
TK-10 renal
  TGI: > 68.8 µM
OVCAR-8 ovarian
  TGI: 15.6 µM
OVCAR-5 ovarian
  TGI: > 100 µM
PC-3 prostate
  TGI: > 28.8 µM
KM12 colon
  TGI: 7.89 µM
NCI-H226 lung
  TGI: 15.8 µM
OVCAR-4 ovarian
  TGI: > 28.3 µM
SK-MEL-2 melanoma
  TGI: 47.8 µM
K-562 leukemia
  TGI: > 21.5 µM
CAKI-1 renal
  TGI: 2.75 µM
MOLT-4 leukemia
  TGI: > 39 µM
SK-MEL-5 melanoma
  TGI: 1.93 µM
RPMI-8226 leukemia
  TGI: 41.8 µM
UACC-257 melanoma
  TGI: > 100 µM
MDA-MB-231 breast
  TGI: 2.26 µM
U251 CNS
  TGI: 23.9 µM
SW-620 colon
  TGI: > 55.7 µM
HOP-92 NSCLC
  TGI: 22.1 µM
HOP-62 NSCLC
  TGI: > 64.3 µM
HT29 colon
  TGI: 25.6 µM
T-47D breast
  TGI: 66.7 µM
OVCAR-3 ovarian
  TGI: 0.929 µM
UO-31 renal
  TGI: 32.2 µM
HS 578T breast
  TGI: 58.3 µM
HCT-15 colon
  TGI: > 45.4 µM
HCC-2998 colon
  TGI: 4.22 µM
UACC-62 melanoma
  TGI: 43.2 µM
NCI-H522 lung
  TGI: 2.28 µM
SF-268 CNS
  TGI: 28.6 µM
SK-OV-3 ovarian
  TGI: 15.3 µM
786-0 renal
  TGI: 20.1 µM
SNB-75 CNS
  TGI: 0.623 µM
CCRF-CEM leukemia
  TGI: > 100 µM
BT-549 breast
  TGI: 26.4 µM
M14 melanoma
  TGI: 36.6 µM
EKVX NSCLC
  TGI: > 100 µM
A498 renal
  TGI: 25 µM
A549 NSCLC
  TGI: > 85.3 µM
COLO 205 colon
  TGI: 0.825 µM
SN12C renal
  TGI: > 41.9 µM
NCI/ADR-RES ovarian
  TGI: 3.86 µM

## CC(=O)O[C@H]1C(=O)[C@@]2(C)[C@H]([C@H](OC(=O)c3ccccc3)[C@]3(O)C[C@H](OC(=O)[C@H](OC(=O)OCCC(O)CO)[C@@H](NC(=O)c4ccccc4)c4ccccc4)C(C)=C1C3(C)C)[C@]1(OC(C)=O)CO[C@@H]1C[C@@H]2O (some centres undefined)
SNB-19 CNS
  TGI: > 100 µM
RXF 393 renal
  TGI: 18.5 µM
ACHN renal
  TGI: > 62.2 µM
MCF7 breast
  TGI: 14.1 µM
IGROV1 ovarian
  TGI: 34.7 µM
SF-539 CNS
  TGI: < 0.01 µM
NCI-H460 lung
  TGI: 19 µM
LOX IMVI melanoma
  TGI: 22 µM
HL-60(TB) leukemia
  TGI: < 0.01 µM
SF-295 CNS
  TGI: 0.187 µM
HCT-116 colon
  TGI: 11.3 µM
NCI-H23 lung
  TGI: > 37 µM
TK-10 renal
  TGI: > 44.6 µM
OVCAR-8 ovarian
  TGI: > 53 µM
OVCAR-5 ovarian
  TGI: 43.5 µM
PC-3 prostate
  TGI: > 100 µM
KM12 colon
  TGI: 13.1 µM
NCI-H226 lung
  TGI: < 0.01 µM
OVCAR-4 ovarian
  TGI: > 100 µM
SK-MEL-2 melanoma
  TGI: > 100 µM
K-562 leukemia
  TGI: 49.8 µM
CAKI-1 renal
  TGI: 62.9 µM
MOLT-4 leukemia
  TGI: 24.9 µM
SK-MEL-5 melanoma
  TGI: 0.613 µM
UACC-257 melanoma
  TGI: 23.3 µM
MDA-MB-231 breast
  TGI: 21.6 µM
U251 CNS
  TGI: 19.2 µM
SW-620 colon
  TGI: > 55.8 µM
HOP-92 NSCLC
  TGI: 61.6 µM
HOP-62 NSCLC
  TGI: 19.9 µM
HT29 colon
  TGI: > 100 µM
OVCAR-3 ovarian
  TGI: 14.5 µM
UO-31 renal
  TGI: > 100 µM
HCT-15 colon
  TGI: > 35.4 µM
HCC-2998 colon
  TGI: 0.0471 µM
UACC-62 melanoma
  TGI: 20.1 µM
NCI-H522 lung
  TGI: < 0.01 µM
SF-268 CNS
  TGI: > 56.9 µM
SK-OV-3 ovarian
  TGI: > 100 µM
786-0 renal
  TGI: 33 µM
SNB-75 CNS
  TGI: 1.28 µM
CCRF-CEM leukemia
  TGI: 12.2 µM
BT-549 breast
  TGI: 19.1 µM
EKVX NSCLC
  TGI: > 100 µM
A498 renal
  TGI: 28.9 µM
A549 NSCLC
  TGI: > 100 µM
SN12C renal
  TGI: 33.6 µM
NCI/ADR-RES ovarian
  TGI: > 43.4 µM

## COc1cc2c(cc1OCCCOc1cc(-c3ccc(F)cc3)nc(C)n1)N=C[C@@H]1CCCN1C2=O
SNB-19 CNS
  TGI: 64.4 µM
RXF 393 renal
  TGI: 54.3 µM
ACHN renal
  TGI: 30.4 µM
MCF7 breast
  TGI: > 100 µM
DU-145 prostate
  TGI: 36.1 µM
SK-MEL-28 melanoma
  TGI: 44.1 µM
IGROV1 ovarian
  TGI: 44.8 µM
SF-539 CNS
  TGI: 48.7 µM
NCI-H460 lung
  TGI: > 100 µM
LOX IMVI melanoma
  TGI: 28.3 µM
HL-60(TB) leukemia
  TGI: 54.1 µM
SF-295 CNS
  TGI: 31 µM
HCT-116 colon
  TGI: 30.6 µM
NCI-H23 lung
  TGI: 29.4 µM
TK-10 renal
  TGI: 34.5 µM
OVCAR-8 ovarian
  TGI: > 100 µM
SR leukemia
  TGI: 27.4 µM
KM12 colon
  TGI: 36.2 µM
NCI-H226 lung
  TGI: 30.5 µM
OVCAR-4 ovarian
  TGI: > 100 µM
SK-MEL-2 melanoma
  TGI: 35.2 µM
CAKI-1 renal
  TGI: 31.9 µM
MOLT-4 leukemia
  TGI: 61.1 µM
SK-MEL-5 melanoma
  TGI: 40.9 µM
RPMI-8226 leukemia
  TGI: > 100 µM
UACC-257 melanoma
  TGI: 43 µM
MDA-MB-231 breast
  TGI: 30 µM
U251 CNS
  TGI: 28.7 µM
SW-620 colon
  TGI: 64 µM
HOP-92 NSCLC
  TGI: > 100 µM
HT29 colon
  TGI: > 100 µM
T-47D breast
  TGI: > 100 µM
OVCAR-3 ovarian
  TGI: 29.4 µM
UO-31 renal
  TGI: 38.7 µM
MDA-MB-435
  TGI: 28.5 µM
HS 578T breast
  TGI: 94.3 µM
HCT-15 colon
  TGI: 25.8 µM
UACC-62 melanoma
  TGI: 28.7 µM
NCI-H522 lung
  TGI: 37.2 µM
SF-268 CNS
  TGI: 36.4 µM
SK-OV-3 ovarian
  TGI: 62.7 µM
786-0 renal
  TGI: 31.5 µM
SNB-75 CNS
  TGI: 49.1 µM
CCRF-CEM leukemia
  TGI: 53.9 µM
M14 melanoma
  TGI: 29.3 µM
EKVX NSCLC
  TGI: 39.3 µM
MALME-3M melanoma
  TGI: 27.3 µM
A498 renal
  TGI: 26.4 µM
A549 NSCLC
  TGI: 43 µM
COLO 205 colon
  TGI: > 100 µM
SN12C renal
  TGI: 32.3 µM
